{"source": "patent US8784804B2", "about": "“Nutraceutical composition that comprises extract of andean shilajit, for preventing and/or treating neurodegenerative diseases and/or the cognitive deterioration associated with cerebral aging” (Centro Internacional de Biomedicina (ICC), priority 2009, dated 2014)", "tested_on": "neuroblastoma cells (N-115 cell line)", "assay": "Shilajit's toxicity in nerve cell culture (MTT assay, calcein-AM)", "assay_type": "cell-based", "conditions": "10 mM H2O2, positive control of neuronal death", "description": "The toxicity of the composition's main component was determined, whose toxicity in nerve cells was unknown up to now. This study consisted in the application of concentrations ranging from 10 to 50 mg/mL to a culture of neuroblastoma cells (N-115 cell line) (MTT assay) and subsequent observation of neuronal death through fluorescent microscopy using the calcein-AM method that determines the morphologic integrity."}
{"smiles": "OO", "note": "[H2O2]", "values": [{"measurement": "% neuronal death", "value": 100.0, "unit": "%"}, {"measurement": "A550", "value": 0.050}]}
